Source: article PMC4501006, “Preliminary Characterization and In Vivo Studies of Structurally Identical ^18F- and ^125I-Labeled Benzyloxybenzenes for PET/SPECT Imaging of β-Amyloid Plaques” (Scientific Reports, 2015)

What was measured:
[1] = Dynamic microPET/CT imaging in normal ICR mice; assay type: in vivo; conditions: for brain radioactivity retention from PET time-activity curve: at 60 min; for muscle and bone uptake, standardized uptake value (SUV): entire 60 min PET scan
Method: To further assess the pharmacokinetics of these two couple of radiolabeled benzyloxybenzenes, following dynamic PET/CT and SPECT/CT scans were conducted in normal ICR mice. High contrast PET and SPECT images implied that all the four radiolabeled benzyloxybenzenes can penetrate the BBB to a great degree and washout from the normal brain regions (Fig. 7a). […] Sustained low muscle and bone uptakes were observed during the entire 60 min scans with standardized uptake values (SUV) of approximate 0.7. […] These PET imaging data well matched the in vivo biodistribution results.
Four normal ICR mice (20–22 g, male) were used for dynamic microPET/CT and microSPECT/CT imaging. The whole-body PET/CT scans were performed using Siemens Inveon device (Siemens Medical Solutions), while SPECT/CT scans were conducted with Mediso nanoScan SPECT/CT scanner (Mediso Medical Imaging System). All mice were anesthetized with 2% isoflurane. Dynamic PET and SPECT scans from 0 to 60 min were started immediately after intravenous injection of [^18F]7a (injected dose, 2.2 MBq), [^18F]12a (injected dose, 4.1 MBq), [^125I]7a (injected dose, 25 MBq), and [^125I]12a (injected dose, 48 MBq), respectively. PET images were reconstructed using three-dimensional ordered subsets expectation maximization (3D OSEM) algorithm, and 3D iterative algorithm was used for SPECT image reconstruction. Time frames for PET imaging were 20 × 60 s and 10 × 240 s, and that for SPECT imaging were 20 × 180 s. Regions of interests (ROIs) were manually drawn on the whole brain, heart, liver, muscle and bone using the CT templates and then transferred to corresponding coregistered PET images. SUVs, injected dose and body weight normalized and decay corrected radioactivity concentration, were calculated for all ROIs. TACs were calculated from this.

Aβ plaques = Aβ plaques (Homo sapiens, UniProt P05067); test: Ex vivo autoradiography and brain radioactivity retention, Tg versus wild-type mouse; assay type: in vivo, Tg mouse (APPswe/PSEN1); conditions: 30 min post-injection
Aβ plaques, sequence (P05067 672-711 limits assumed): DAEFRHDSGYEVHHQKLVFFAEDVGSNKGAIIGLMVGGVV
Method: To further characterize the in vivo Aβ imaging capabilities, we conducted ex vivo autoradiographic studies with [^125I]7a which combined high binding affinity, high initial brain uptake, fast clearance and excellent in vivo biostability in the brain. [^125I]7a (1 mCi, 200 μL) was injected intravenously into a Tg mouse (APPswe/PSEN1, male, 27 months old) and an age-matched wild-type mouse (C57BL6, male). Thirty minutes after injection, the brains were removed, weighed and the radioactivity was counted. Then the brains were frozen and sectioned for ex vivo autoradiography. […] Ex vivo autoradiography was performed on a transgenic mouse (APPswe/PSEN1, male, 27 months old) and a wild-type mouse (C57BL6, male, 27 months old). A saline solution (200 μL, 10% EtOH) of 1 mCi of [^125I]7a was injected into the mice via the tail vein. The mice were sacrificed by decapitation at 30 min post-injection, and the brains were immediately removed, weighed and the radioactivity was counted. Frozen brain sections of 20 μm were cut and exposed to a phosphorus plate (Perkin-Elmer, USA) for one week. Ex vivo autoradiographic images were obtained using a phosphor imaging system (Cyclone, Packard). Subsequently the same sections were stained with ThS to confirm the presence and location of Aβ plaques.

| brain uptake from PET time-activity curve ([1]; at 8 min) [% ID/g] | brain radioactivity retention from PET time-activity curve [1] [% ID/g] | muscle and bone uptake, standardized uptake value (SUV) [1] | higher brain radioactivity retention in Tg mouse than in wild-type control mouse (Aβ plaques; i.v., 1 mCi) [%] | brain uptake from PET time-activity curve ([1]; at 7 min) [% ID/g] | SMILES | ex vivo autoradiography, labeling of Aβ plaques (Aβ plaques; Tg mouse brain sections) |
| --- | --- | --- | --- | --- | --- | --- |
| 5.96 | 3.08 | ~0.7 |  |  | [18F]CCOc1ccc(OCc2ccc(I)cc2)cc1 [[^18F]7a] |  |
|  |  |  | 40 |  | FCCOc1ccc(OCc2ccc([125I])cc2)cc1 [[^125I]7a] | clear labeling of Aβ plaques in the Tg mouse brain |
|  | 3.47 | ~0.7 |  | 6.74 | [18F]CCOc1ccc(COc2ccc(I)cc2)cc1 [[^18F]12a] |  |
